Laboratory results published in patent publication US11203574B2 (BioCryst Pharmaceuticals, Inc., priority 2014, dated 2021).

Molecular target: human plasma kallikrein (Homo sapiens (Human), UniProt P03952)
Experiment: Plasma kallikrein activity assay (chromogenic substrate S2302)
Format: biochemical
Settings: 2 nM kallikrein, 80 μM S2302, 30° C., pH 7.8; Ki by Cheng-Prusoff equation; values given as ranges; read-out: Ki

human plasma kallikrein, sequence (P03952 whole entry, looked up): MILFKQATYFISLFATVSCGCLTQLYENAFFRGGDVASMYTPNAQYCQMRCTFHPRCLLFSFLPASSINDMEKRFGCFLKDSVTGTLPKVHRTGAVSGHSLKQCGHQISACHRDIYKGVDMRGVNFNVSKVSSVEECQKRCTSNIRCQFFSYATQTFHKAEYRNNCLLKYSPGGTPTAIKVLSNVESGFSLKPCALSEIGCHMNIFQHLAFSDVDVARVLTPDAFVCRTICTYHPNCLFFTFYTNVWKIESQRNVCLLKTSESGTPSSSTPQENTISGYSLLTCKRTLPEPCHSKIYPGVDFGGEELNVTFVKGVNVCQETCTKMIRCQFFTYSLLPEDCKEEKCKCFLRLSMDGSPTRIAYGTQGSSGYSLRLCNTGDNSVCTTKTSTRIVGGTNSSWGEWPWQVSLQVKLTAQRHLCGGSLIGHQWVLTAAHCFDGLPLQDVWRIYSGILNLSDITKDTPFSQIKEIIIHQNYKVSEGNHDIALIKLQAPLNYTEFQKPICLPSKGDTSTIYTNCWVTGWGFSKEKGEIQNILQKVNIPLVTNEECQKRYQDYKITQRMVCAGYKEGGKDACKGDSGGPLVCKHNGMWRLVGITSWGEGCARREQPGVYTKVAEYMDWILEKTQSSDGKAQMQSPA
human plasma kallikrein, sequence (P03952 whole entry partner, looked up): as the sequence (P03952 whole entry, looked up) above

SMILES | Ki
N=C(N)c1cccc(-n2nc(C(F)(F)F)cc2C(=O)Nc2cc(C(N)(CCC3CC3)c3cccnc3)ccc2F)c1 (single isomer, unassigned; (+)) [238d, (+)-N-(5-(1-amino-3-cyclopropyl-1-(pyridin-3-yl)propyl)-2-fluorophenyl)-1-(3-carbamimidoylphenyl)-3-(trifluoromethyl)-1H-pyrazole-5-carboxamide] | 0.1 to 50 nM
N#Cc1ccc(C(N)(CCC2CC2)c2ccc(F)c(NC(=O)c3cc(C(F)(F)F)nn3-c3cccc(C(=N)N)c3)c2)cc1 (single isomer, unassigned; (+)) [241a, (+)-N-(5-(1-amino-1-(4-cyanophenyl)-3-cyclopropylpropyl)-2-fluorophenyl)-1-(3-carbamimidoylphenyl)-3-(trifluoromethyl)-1H-pyrazole-5-carboxamide] | 0.1 to 50 nM
Nc1nccc2ccc(-n3nc(C(F)(F)F)cc3C(=O)Nc3cc(C(N)(CCC4CC4)c4ccncc4)ccc3F)cc12 (single isomer, unassigned; (+)) [253e, (+)-N-(5-(1-amino-3-cyclopropyl-1-(pyridin-4-yl)propyl)-2-fluorophenyl)-1-(1-aminoisoquinolin-7-yl)-3-(trifluoromethyl)-1H-pyrazole-5-carboxamide] | 0.1 to 50 nM
N#Cc1ccc(C(N)(CCC2CC2)c2ccc(F)c(NC(=O)c3cc(C(F)(F)F)nn3-c3ccc4ccnc(N)c4c3)c2)cc1 (single isomer, unassigned; (+)) [254c, (+)-N-(5-(1-amino-1-(4-cyanophenyl)-3-cyclopropylpropyl)-2-fluorophenyl)-1-(1-aminoisoquinolin-7-yl)-3-(trifluoromethyl)-1H-pyrazole-5-carboxamide] | 0.1 to 50 nM
Nc1nccc2ccc(-n3nc(C(F)(F)F)cc3C(=O)Nc3cc(C(N)(CCC4CC4)c4ccccc4)ccc3F)cc12 (single isomer, unassigned; (+)) [255a, (+)-N-(5-(1-amino-3-cyclopropyl-1-phenylpropyl)-2-fluorophenyl)-1-(1-aminoisoquinolin-7-yl)-3-(trifluoromethyl)-1H-pyrazole-5-carboxamide] | 0.1 to 50 nM
N#Cc1cccc(C(N)(CCC2CC2)c2ccc(F)c(NC(=O)c3cc(C(F)(F)F)nn3-c3ccc4ccnc(N)c4c3)c2)c1 (single isomer, unassigned; (+)) [256a, (+)-N-(5-(1-amino-1-(3-cyanophenyl)-3-cyclopropylpropyl)-2-fluorophenyl)-1-(1-aminoisoquinolin-7-yl)-3-(trifluoromethyl)-1H-pyrazole-5-carboxamide] | 0.1 to 50 nM
NCc1cccc(-n2nc(C(F)(F)F)cc2C(=O)Nc2cc(C(CCC3CC3)N3CCCCC3=O)ccc2F)c1 (single isomer, unassigned; (+)) [261k, (+)-1-(3-(aminomethyl)phenyl)-N-(5-(3-cyclopropyl-1-(2-oxopiperidin-1-yl)propyl)-2-fluorophenyl)-3-(trifluoromethyl)-1H-pyrazole-5-carboxamide] | 0.1 to 50 nM
Cc1cc(C(N)(CCC2CC2)c2ccc(F)c(NC(=O)c3cc(C(F)(F)F)nn3-c3cccc(CN)c3)c2)ccn1 (single isomer, unassigned; (+)) [266j, (+)-N-(5-(1-amino-3-cyclopropyl-1-(2-methylpyridin-4-yl)propyl)-2-fluorophenyl)-1-(3-(aminomethyl)phenyl)-3-(trifluoromethyl)-1H-pyrazole-5-carboxamide] | 0.1 to 50 nM
Nc1nccc2ccc(-n3nc(C(=O)Nc4cc(C(N)(CCC5CC5)c5ccncc5)ccc4F)cc3C(F)(F)F)cc12 (single isomer, unassigned; (+)) [268g, (+)-N-(5-(1-amino-3-cyclopropyl-1-(pyridin-4-yl)propyl)-2-fluorophenyl)-1-(1-aminoisoquinolin-7-yl)-5-(trifluoromethyl)-1H-pyrazole-3-carboxamide] | 50 to 100 nM
NCc1cccc(-n2nc(C(F)(F)F)cc2C(=O)Nc2cccc(C(OCC3CC3)c3ccccn3)c2)c1 (single isomer, unassigned; (-)) [43g, (−)-1-(3-(aminomethyl)phenyl)-N-(3-((cyclopropylmethoxy)(pyridin-2-yl)methyl)-phenyl)-3-(trifluoromethyl)-1H-pyrazole-5-carboxamide] | 0.1 to 50 nM
NCc1cccc(-n2nc(C(F)(F)F)cc2C(=O)Nc2cccc(C(OCC3CC3)c3cccnc3)c2)c1 (single isomer, unassigned; (-)) [44e, (−)-1-(3-(aminomethyl)phenyl)-N-(3-((cyclopropylmethoxy)(pyridin-3-yl)methyl)phenyl)-3-(trifluoromethyl)-1H-pyrazole-5-carboxamide] | 0.1 to 50 nM
NCc1cccc(-n2nc(C(F)(F)F)cc2C(=O)Nc2cccc(C(O)(CCC3CC3)c3ccccc3)c2)c1 (single isomer, unassigned; (-)) [46i, (−)-1-(3-(aminomethyl)phenyl)-N-(3-(3-cyclopropyl-1-hydroxy-1-phenylpropyl)phenyl)-3-(trifluoromethyl)-1H-pyrazole-5-carboxamide] | 0.1 to 50 nM
NCc1cccc(-n2nc(C(F)(F)F)cc2C(=O)Nc2cccc(C(O)(CCC3CC3)c3cccnc3)c2)c1 (single isomer, unassigned; (-)) [47g, (−)-1-(3-(aminomethyl)phenyl)-N-(3-(3-cyclopropyl-1-hydroxy-1-(pyridin-3-yl)propyl)phenyl)-3-(trifluoromethyl)-1H-pyrazole-5-carboxamide] | 0.1 to 50 nM
NCc1cccc(-n2nc(C(F)(F)F)cc2C(=O)Nc2cccc(C(OCC3CC3)c3cccc(N)c3)c2)c1 (single isomer, unassigned; (-)) [64a, (−)-1-(3-(aminomethyl)phenyl)-N-(3-((3-aminophenyl)(cyclopropyl-methoxy)methyl)phenyl)-3-(trifluoromethyl)-1H-pyrazole-5-carboxamide] | 0.1 to 50 nM
NCc1cccc(-n2nc(C(F)(F)F)cc2C(=O)Nc2cccc(C(OCC3CC3)c3ccccc3)c2)c1 (single isomer, unassigned; (-)) [165e, (−)-1-(3-(aminomethyl)phenyl)-N-(3-((cyclopropylmethoxy)(phenyl)methyl)phenyl)-3-(trifluoromethyl)-1H-pyrazole-5-carboxamide] | 0.1 to 50 nM
NCc1cccc(-n2nc(C(F)(F)F)cc2C(=O)Nc2cc(C(c3ccccc3)N(CC3CC3)CC3CC3)ccc2F)c1 (single isomer, unassigned; (-)) [206d, (−)-1-(3-(aminomethyl)phenyl)-N-(5-((bis(cyclopropylmethyl)amino)(phenyl)methyl)-2-fluorophenyl)-3-(trifluoromethyl)-1H pyrazole-5-carboxamide] | 0.1 to 50 nM
NCc1cccc(-n2nc(C(F)(F)F)cc2C(=O)Nc2cc(C(N)(CCC3CC3)c3ccncc3)ccc2F)c1 (single isomer, unassigned; (-)) [217d, (−)-N-(5-(1-amino-3-cyclopropyl-1-(pyridin-4-yl)propyl)-2-fluorophenyl)-1-(3-(aminomethyl)phenyl)-3-(trifluoromethyl)-1H-pyrazole-5-carboxamide] | 50 to 100 nM
NCc1cccc(-n2nc(C(F)(F)F)cc2C(=O)Nc2cc(C(N)(CCC3CC3)c3cccc(C(N)=O)c3)ccc2F)c1 (single isomer, unassigned; (-)) [225a, (−)-N-(5-(1-amino-1-(3-carbamoylphenyl)-3-cyclopropylpropyl)-2-fluorophenyl)-1-(3-(aminomethyl)phenyl)-3-(trifluoromethyl)-1H-pyrazole-5-carboxamide] | 0.1 to 50 nM
N=C(N)c1cccc(-n2nc(C(F)(F)F)cc2C(=O)Nc2cc(C(NCC3CC3)c3ccccc3)ccc2F)c1 (single isomer, unassigned; (-)) [227d, (−)-1-(3-carbamimidoylphenyl)-N-(5-((cyclopropylmethylamino)(phenyl)methyl)-2-fluorophenyl)-3-(trifluoromethyl)-1H-pyrazole-5-carboxamide] | 0.1 to 50 nM
N#Cc1cc(C(=O)Nc2cc(C(NCC3CC3)c3ccccc3)ccc2F)n(-c2cccc(CN)c2)n1 (single isomer, unassigned; (-)) [240b, (−)-1-(3-(aminomethyl)phenyl)-3-cyano-N-(5-((cyclopropylmethylamino)(phenyl)methyl)-2-fluorophenyl)-1H-pyrazole-5-carboxamide] | 0.1 to 50 nM
CC(C)(C)C(=O)NC(CCC1CC1)(c1cccnc1)c1ccc(F)c(NC(=O)c2cc(C(F)(F)F)nn2-c2cccc(CN)c2)c1 (single isomer, unassigned; (-)) [244g, (−)-1-(3-(aminomethyl)phenyl)-N-(5-(3-cyclopropyl-1-pivalamido-1-(pyridin-3-yl)propyl)-2-fluorophenyl)-3-(trifluoromethyl)-1H-pyrazole-5-carboxamide] | 0.1 to 50 nM
CC(=O)NC(CCC1CC1)(c1cccnc1)c1ccc(F)c(NC(=O)c2cc(C(F)(F)F)nn2-c2cccc(CN)c2)c1 (single isomer, unassigned; (-)) [244h, (−)-N-(5-(1-acetamido-3-cyclopropyl-1-(pyridin-3-yl)propyl)-2-fluorophenyl)-1-(3-(aminomethyl)phenyl)-3-(trifluoromethyl)-1H-pyrazole-5-carboxamide] | 0.1 to 50 nM
CCC(=O)NC(CCC1CC1)(c1cccnc1)c1ccc(F)c(NC(=O)c2cc(C(F)(F)F)nn2-c2cccc(CN)c2)c1 (single isomer, unassigned; (-)) [244i, (−)-1-(3-(aminomethyl)phenyl)-N-(5-(3-cyclopropyl-1-propionamido-1-(pyridin-3-yl)propyl)-2-fluorophenyl)-3-(trifluoromethyl)-1H-pyrazole-5-carboxamide] | 0.1 to 50 nM
CC(C)C(=O)NC(CCC1CC1)(c1cccnc1)c1ccc(F)c(NC(=O)c2cc(C(F)(F)F)nn2-c2cccc(CN)c2)c1 (single isomer, unassigned; (-)) [244j, (−)-1-(3-(aminomethyl)phenyl)-N-(5-(3-cyclopropyl-1-isobutyramido-1-(pyridin-3-yl)propyl)-2-fluorophenyl)-3-(trifluoromethyl)-1H-pyrazole-5-carboxamide] | 0.1 to 50 nM
CC(C)CC(=O)NC(CCC1CC1)(c1cccnc1)c1ccc(F)c(NC(=O)c2cc(C(F)(F)F)nn2-c2cccc(CN)c2)c1 (single isomer, unassigned; (-)) [244k, (−)-1-(3-(aminomethyl)phenyl)-N-(5-(3-cyclopropyl-1-(3-methylbutanamido)-1-(pyridin-3-yl)propyl)-2-fluorophenyl)-3-(trifluoromethyl)-1H-pyrazole-5-carboxamide] | 0.1 to 50 nM
